Article PMC6056748, “Amsacrine Derivatives Selectively Inhibit Mycobacterial Topoisomerase I (TopA), Impair M. smegmatis Growth and Disturb Chromosome Replication” (Frontiers in Microbiology, 2018)
Read-outs that look alike come from different tables or passages of the source.

Tests used:
[1] = system: M. smegmatis strain (JH01), DnaN-EGFP; experiment: TLMM: number of DnaN-EGFP foci per cell
Method: For time-lapse microscopy, M. smegmatis strains were cultured to the log-phase of growth, then diluted with 7H9 medium supplemented with 10% OADC and 0.05% Tween-80 and loaded into the flow chamber of B04A plates with a CellASIC ONIX flow control system (Merck-Millipore). During the experiment, the cells were continuously supplied with fresh medium supplemented with the inhibitor (at 30–240 μM concentrations) or 1% DMSO in the control experiment. To visualize dead cells, after 15 h of inhibitor treatment cells were washed with propidium iodide at concentration 10 μg/ml for 1 h. The images were taken in 10 min intervals using a Delta Vision Elite Imager equipped with DV Elite CoolSnap HQ2 Camera and SoftWorx software and were subsequently analyzed using ImageJ Fiji suite (http://fiji.sc/Fiji) and R suite (http://www.R-project.org). The analysis of cell cycle and evaluation of particular phases of growth started from the moment of appearance of a single DnaN-EGFP foci (initiation of DNA replication).

[2] = system: M. smegmatis strain (JH01), DnaN-EGFP; experiment: TLMM: replisome lifetime and cell cycle phases; settings: for Average lifetime of DnaN-EGFP complex (replisome lifetime): 120 μM, control 1% DMSO 130 min; for Phase D+B / Phase C / Complete cell cycle: 120 µM, mean (SD), n = 50; for Phase D+B: 1% DMSO 33 (15); for Phase C: 1% DMSO 129 (15); for Complete cell cycle: 1% DMSO 162 (18)
MsTopA [3] = biological target: T1, MsTopA (Mycolicibacterium smegmatis, UniProt A0R5D9); experiment: MsTopA inhibition in PI, NI and PN order-of-addition assays; assay type: biochemical, M. smegmatis; settings: 60 μM inhibitor, 60 nM MsTopA
T1 sequence (A0R5D9 whole entry): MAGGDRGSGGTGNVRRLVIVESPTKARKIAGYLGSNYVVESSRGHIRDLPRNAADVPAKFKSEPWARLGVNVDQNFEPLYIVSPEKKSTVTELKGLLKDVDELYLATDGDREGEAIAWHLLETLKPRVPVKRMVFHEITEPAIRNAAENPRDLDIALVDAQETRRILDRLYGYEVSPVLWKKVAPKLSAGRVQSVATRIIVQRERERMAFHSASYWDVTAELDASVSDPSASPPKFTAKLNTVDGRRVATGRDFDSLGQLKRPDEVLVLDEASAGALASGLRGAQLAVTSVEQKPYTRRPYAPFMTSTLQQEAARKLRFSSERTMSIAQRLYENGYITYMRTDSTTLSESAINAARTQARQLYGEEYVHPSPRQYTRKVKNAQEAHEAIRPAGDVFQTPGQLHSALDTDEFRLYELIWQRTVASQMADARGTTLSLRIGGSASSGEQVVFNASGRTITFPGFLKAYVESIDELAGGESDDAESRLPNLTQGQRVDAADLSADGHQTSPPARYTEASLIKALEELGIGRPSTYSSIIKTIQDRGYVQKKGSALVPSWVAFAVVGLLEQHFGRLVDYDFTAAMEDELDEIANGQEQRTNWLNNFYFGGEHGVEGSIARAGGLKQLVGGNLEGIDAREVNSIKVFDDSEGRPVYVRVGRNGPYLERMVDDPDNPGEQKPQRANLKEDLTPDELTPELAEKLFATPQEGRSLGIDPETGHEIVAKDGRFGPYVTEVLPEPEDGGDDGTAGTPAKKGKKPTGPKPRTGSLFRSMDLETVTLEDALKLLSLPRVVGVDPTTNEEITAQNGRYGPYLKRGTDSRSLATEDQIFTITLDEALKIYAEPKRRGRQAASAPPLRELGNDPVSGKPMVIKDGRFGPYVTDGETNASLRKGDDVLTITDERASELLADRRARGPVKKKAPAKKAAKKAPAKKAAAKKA
Method: In the inhibition assays used to test the effect of inhibitor binding to the enzyme, DNA or the enzyme-DNA complex (PI—protein-inhibitor binding, NI—nucleic acid-inhibitor binding, or PNI—protein-nucleic acid binding) the complete reaction mixtures (as above) without magnesium ions and one of the reaction components (substrate, enzyme or inhibitor in the PI, NI, and PNI assays, respectively) were preincubated for 30 min on ice. Subsequently, the reactions were started by adding magnesium chloride and the missing component: negatively supercoiled pUC19 plasmid, MsTopA protein or the particular inhibitors. The reactions were performed for 5 min at 37°C and stopped by adding 1.5 μl of 0.5 M EDTA. Topoisomers were resolved and analyzed according to the procedure described above.

S. venezuelae = experiment: Growth analysis (Bioscreen C, log-phase growth rate); assay type: cell-based; settings: for IC50: growth rate in log-phase, Figure 2B
[4] = system: M. smegmatis MSZ2 strain producing M. tuberculosis MtTopA; assay type: cell-based
E. coli = experiment: Growth analysis (Bioscreen C, log-phase growth rate); assay type: cell-based; settings: Escherichia coli; for IC50: growth rate in log-phase, Figure 2B
MsTopA [5] = biological target: T1, MsTopA; experiment: Topoisomerase I activity assay (relaxation of negatively supercoiled pUC19); assay type: biochemical, M. smegmatis; settings: 60 nM MsTopA; for MsTopA inhibition in the screen of amsacrine derivatives (Table S2): 60 μM compound, data not shown; for inhibition at 60 µM: 60 μM inhibitor; for MsTopA activity inhibition over concentration range: concentrations from 15 to 60 μM
Method: The amsacrine derivatives were stored at 4°C as 20 mM stock solutions in DMSO. Shortly before the activity assays, the inhibitors were diluted in DMSO to reach working concentration (0.15–0.6 mM). An 18 μl mixture containing 120 ng MsTopA, 25 mM NaH2PO4 at pH 8.0, 150 mM NaCl, 5% glycerol, 10 mM MgCl2 and a tested inhibitor in a final concentration of 15, 30, or 60 μM was incubated for 30 min on ice. To start the reaction, 2.0 μl (140 ng) of negatively supercoiled pUC19 plasmid were added to the mixture and incubated for 15 min at 37°C in the presence of 60 nM MsTopA. The reaction was stopped by adding 1.5 μl of 0.5 M EDTA. DNA was resolved in 0.8% agarose in TAE buffer at 140 V for 3 h at room temperature. Topoisomers distribution was visualized by ethidium bromide staining for 30 min at room temperature. Subsequently, the fluorescence signal of supercoiled plasmid and the relaxed topoisomers was calculated using ImageJ Fiji suite (http://fiji.sc/Fiji). To determine the efficiency of MsTopA inhibition, we calculated the fraction of total plasmid that remained supercoiled after the reaction.

MsTopA [6] = biological target: T1, MsTopA; experiment: Surface plasmon resonance of MsTopA binding to immobilized DNA; set-up: species or system M. smegmatis; settings: for MsTopA affinity for DNA (SPR): 15–90 μM compound, MsTopA 60 nM; for ICB, inhibitory concentration that completely blocks MsTopA binding: 241 bp DNA on chip, inhibitor preincubated with MsTopA
Method: Surface plasmon resonance (SPR)
SPR analyses were performed on a BIAcore T200. For the SPR analyses, the biotinylated fragment (241-bp long) was amplified using parA4200 and parS4440_rv_biot oligonucleotides from S. coelicolor chromosome. DNA immobilization on the surface of the sensor chip SA and protein binding analyses were performed according to the procedure described by Strzalka et al.[9]. Prior to binding to the DNA-coated chip, MsTopA (50 nM) in 25 mM NaH2PO4 pH 8.0, 150 mM NaCl and 5% glycerol (binding buffer) was incubated on ice for 40 minutes with amsacrine or its XC derivatives (in 15 - 90 µM concentrations or 1% DMSO for the control experiment). For each compound, the ICB value was estimated as the inhibitor concentration that completely abolished the binding of MsTopA to the DNA-coated chip.

M. smegmatis mc2155 = experiment: Growth analysis (Bioscreen C, log-phase growth rate); assay type: cell-based; settings: for inhibition at 30 µM: log-phase growth rate vs 1% DMSO; for IC50 lower than amsacrine: M. smegmatis growth
[7] = Solubility under microfluidic conditions; assay type: physicochemical
[8] = system: M. smegmatis (JH01 strain); experiment: Propidium iodide staining of dead cells (TLMM); settings: 120 μM, after 15 hours of exposure
Method: For time-lapse microscopy, M. smegmatis strains were cultured to the log-phase of growth, then diluted with 7H9 medium supplemented with 10% OADC and 0.05% Tween-80 and loaded into the flow chamber of B04A plates with a CellASIC ONIX flow control system (Merck-Millipore). During the experiment, the cells were continuously supplied with fresh medium supplemented with the inhibitor (at 30–240 μM concentrations) or 1% DMSO in the control experiment. To visualize dead cells, after 15 h of inhibitor treatment cells were washed with propidium iodide at concentration 10 μg/ml for 1 h. The images were taken in 10 min intervals using a Delta Vision Elite Imager equipped with DV Elite CoolSnap HQ2 Camera and SoftWorx software and were subsequently analyzed using ImageJ Fiji suite (http://fiji.sc/Fiji) and R suite (http://www.R-project.org).
M. smegmatis (JH01 strain) growth in the presence of 120 µM amsacrine or 1% DMSO was
visualized using TLMM microscopy (the procedure descirbed in the materials and methods).
After 15 hours of exposure to antibiotic cells were washed with medium suplemented with 10
µg/ml propidium iodide for 1 hour to detect dead cells (red) in the population.

[9] = Mycolicibacterium smegmatis, MC2155
[10] = Mycolicibacterium smegmatis, MC2155, M. smegmatis, Figure S4, read-out: IC50 (growth inhibition fitted to a sigmoidal model)
[11] = Mycolicibacterium smegmatis, MC2155, growth rate in log-phase, Figure 2B, read-out: IC50 M. smegmatis

Compound | Percentage of cells with more than two DnaN-EGFP foci ([1]; 120 μM) | Percentage of cells with no DnaN-EGFP focus ([1]; 120 μM) | Average lifetime of DnaN-EGFP complex (replisome lifetime) [2] | Inhibitory effect when added to the preformed MsTopA-DNA complex (PN assay) (MsTopA [3]) | S. venezuelae growth inhibition (S. venezuelae; 60 μM) | IC50 (S. venezuelae; Streptomyces venezuelae) [µM] | Difference in growth inhibition between wild-type M. smegmatis and MSZ2 strain producing MtTopA [4] | IC50 (E. coli) [µM] | MsTopA inhibition in the screen of amsacrine derivatives (Table S2) (MsTopA [5]) | inhibition at 60 µM (MsTopA [5]) [%] | MsTopA activity inhibition over concentration range (MsTopA [5]) | MsTopA affinity for DNA (SPR) (MsTopA [6]) | ICB, inhibitory concentration that completely blocks MsTopA binding (MsTopA [6]) [µM] | inhibition at 30 µM (M. smegmatis mc2155; [9]) [%] | IC50 (M. smegmatis mc2155; [10]) [µM] | IC50 (M. smegmatis mc2155; [11]) [µM] | IC50 lower than amsacrine (M. smegmatis mc2155) | Phase D+B [2] | Phase C [2] | also measured
COc1cc(NS(=O)(=O)c2ccccc2)ccc1Nc1c2ccccc2nc2ccccc12 [XC-1] | 13.4–19.1% | 13.8–18.3% | slightly increased | notably weaker | much lesser extent than amsacrine | > 90 | did not observe any differences in growth inhibition | > 90 | efficiently inhibited MsTopA activity | 73 | strongly inhibit MsTopA activity at concentrations >30 μM | decrease in enzyme affinity for DNA | 60 | 20 to 30 | 55.4 | 58 | – | – | – | –
COc1cc(NS(=O)(=O)c2ccc([N+](=O)[O-])cc2)ccc1Nc1c2ccccc2nc2ccccc12 [XC-3] | 13.4–19.1% | 13.8–18.3% | slightly increased | – | much lesser extent than amsacrine | > 90 | did not observe any differences in growth inhibition | 78 | efficiently inhibited MsTopA activity | 73 | strongly inhibit MsTopA activity at concentrations >30 μM | decrease in enzyme affinity for DNA | 15 | 55 to 60 | 26.8 | 26 | 30–40% | – | – | Solubility under microfluidic conditions [7]: poor solubility
COc1cc(NS(C)(=O)=O)ccc1Nc1c2ccccc2nc2ccccc12 [Amsacrine, amsacrine] | 27.6% | 26.1% | slightly increased | – | – | 47 | did not observe any differences in growth inhibition | > 90 | – | 64 | strongly inhibit MsTopA activity at concentrations >30 μM | decrease in enzyme affinity for DNA | 90 | 20 to 30 | 40 | 41 | – | 40 (21) min | 154 (32) min | Percentage of cells with more than two DnaN-EGFP foci ([1]; 240 μM): 6.2%; Percentage of cells with no DnaN-EGFP focus ([1]; 240 μM): 48%; Complete cell cycle [2]: 194 (36) min; Complete cell cycle ([2]; listed as amsacrine): only slightly; inhibition at 60 µM (S. venezuelae; Streptomyces venezuelae, 60 μM): ≤ 80%; Fraction of dead cells (propidium iodide) [8]: 12%; inhibition at 60 µM (E. coli; read-out: E. coli growth inhibition): 32%; inhibition at 60 µM (M. smegmatis mc2155; Mycolicibacterium smegmatis, MC2155, 60 μM): ≤ 80%
COc1cc(NS(=O)(=O)c2ccc(C)cc2)ccc1Nc1c2ccccc2nc2ccccc12 [XC-4] | 4.6% | – | 220 min | – | much lesser extent than amsacrine | > 90 | did not observe any differences in growth inhibition | 86 | efficiently inhibited MsTopA activity | 80 | strongly inhibit MsTopA activity at concentrations >30 μM | decrease in enzyme affinity for DNA | 15 | 55 to 60 | 27 | 28 | 30–40% | 70 (38) min | 240 (51) min | Percentage of cells with more than two DnaN-EGFP foci ([1]; 30 μM): 19.3%; DnaN-EGFP lifetime ([2]; 30 μM, compared with 120 μM XC-4): shortened the DnaN-EGFP lifetime
COc1cc(NS(=O)(=O)c2ccc(Cl)cc2)ccc1Nc1c2ccccc2nc2ccccc12 [XC-2] | 13.4–19.1% | 13.8–18.3% | slightly increased | notably weaker | much lesser extent than amsacrine | 85 | did not observe any differences in growth inhibition | > 90 | efficiently inhibited MsTopA activity | 63 | strongly inhibit MsTopA activity at concentrations >30 μM | decrease in enzyme affinity for DNA | 30 | 20 to 30 | 56 | – | – | – | – | –
COc1cc([C@@H]2c3cc4c(cc3[C@@H](O[C@@H]3O[C@@H]5CO[C@@H](C)O[C@H]5[C@H](O)[C@H]3O)[C@H]3COC(=O)[C@H]23)OCO4)cc(OC)c1O [etoposide, reference compound] | – | – | – | – | – | – | – | – | – | – | – | – | – | – | – | – | – | – | – | MsTopA inhibition (MsTopA [5]; etoposide 0.1 - 2.0 mM): did not observe MsTopA inhibition
